Laboratory results reported in the CheMixHub viscosity set.

Test: xn = mol fraction of the nth substance listed

Cn1ccnc1 + O
viscosity [mPa·s], 100 kPa
Conditions | 298.15 K | 308.15 K | 318.15 K
x1 = 0.0499 | 1.322 | 1.024 | 0.821
x1 = 0.0997 | 1.733 | 1.313 | 1.031
x1 = 0.1496 | 2.155 | 1.611 | 1.239
x1 = 0.1996 | 2.583 | 1.893 | 1.451
x1 = 0.2991 | 3.413 | 2.423 | 1.806
x1 = 0.3993 | 3.978 | 2.789 | 2.034
x1 = 0.499 | 4.032 | 2.846 | 2.094
x1 = 0.5989 | 3.653 | 2.644 | 1.983
x1 = 0.6996 | 3.103 | 2.278 | 1.772
x1 = 0.7996 | 2.561 | 1.974 | 1.579
x1 = 0.8493 | 2.337 | 1.829 | 1.491
x1 = 0.8988 | 2.136 | 1.673 | 1.388
x1 = 0.9496 | 1.96 | 1.557 | 1.309

O=BOB([O-])OB([O-])OB=O.[Na+].[Na+] + O
viscosity [mPa·s], 101 kPa
Conditions | x1 = 0.0009 | x1 = 0.0018 | x1 = 0.0022 | x1 = 0.0027
298.15 K | 0.9284 | 0.9681 | 0.9845 | 1.008
308.15 K | 0.7526 | 0.7823 | 0.7945 | 0.8122
318.15 K | 0.6216 | 0.6508 | 0.6626 | 0.6806

O=C[C@@H](O)[C@@H](O)[C@H](O)[C@H](O)CO + O
viscosity [mPa·s], 101 kPa
Conditions | 293.15 K | 303.15 K | 308.15 K | 313.15 K
x1 = 0.0026 | 1.052 | 0.8259 | – | 0.6702
x1 = 0.005 | 1.116 | 0.8625 | 0.7717 | 0.6965

OCCN1CCOCC1 + O
101 kPa
Conditions | viscosity [mPa·s]
303.15 K, x1 = 0.8238 | 30.25
313.15 K, x1 = 0.1126 | 13.55

CN(C)c1ccccc1 + O=C1CCCCC1
viscosity [mPa·s], 101 kPa
Conditions | 303.15 K | 308.15 K
x1 = 0.0699 | 1.724 | 1.569
x1 = 0.1269 | 1.658 | 1.502
x1 = 0.1906 | 1.587 | 1.432
x1 = 0.2652 | 1.512 | 1.353
x1 = 0.3251 | 1.457 | 1.299
x1 = 0.4012 | 1.395 | 1.245
x1 = 0.4852 | 1.336 | 1.195
x1 = 0.5602 | 1.292 | 1.161
x1 = 0.6421 | 1.254 | 1.136
x1 = 0.7014 | 1.231 | 1.124
x1 = 0.7745 | 1.209 | 1.114
x1 = 0.8512 | 1.192 | 1.113
x1 = 0.9212 | 1.18 | 1.112

CN(C)c1ccccc1 + O=S1(=O)CCCC1
viscosity [mPa·s], 101 kPa
Conditions | x1 = 0.1056 | x1 = 0.2173 | x1 = 0.2989 | x1 = 0.4055 | x1 = 0.5001 | x1 = 0.6087 | x1 = 0.6965 | x1 = 0.798 | x1 = 0.9131
303.15 K | 7.8 | 5.97 | 4.93 | 3.86 | 3.12 | 2.47 | 2.06 | 1.68 | 1.36
308.15 K | 6.92 | 5.33 | 4.44 | 3.51 | 2.85 | 2.26 | 1.89 | 1.55 | 1.26
313.15 K | 6.18 | 4.79 | 4.01 | 3.19 | 2.61 | 2.08 | 1.74 | 1.43 | 1.17

CN(C)c1ccccc1 + O=[N+]([O-])c1ccccc1
298.15 K, 101 kPa
Conditions | viscosity [mPa·s]
x2 = 0.1239 | 1.337
x2 = 0.2063 | 1.355
x2 = 0.5628 | 1.488
x2 = 0.6512 | 1.565
x2 = 0.8325 | 1.702
x2 = 0.9168 | 1.766

CCCC[P+](CC)(CC)CC.N#Cc1ccc[n-]1 + OCC(O)CO
100 kPa
Conditions | viscosity [mPa·s]
293.15 K, x1 = 0.259 | 933
293.15 K, x1 = 0.34 | 737
298.15 K, x1 = 0.004 | 876
298.15 K, x1 = 0.018 | 953
298.15 K, x1 = 0.129 | 932
298.15 K, x1 = 0.187 | 768
303.15 K, x1 = 0.058 | 695
303.15 K, x1 = 0.08 | 692

CCCCCCCCCCCCCCCCCC[P+](CCCC)(CCCC)CCCC.N#Cc1ccc[n-]1 + OCCN(CCO)CCO
viscosity [mPa·s], 100 kPa
Conditions | 293.15 K | 298.15 K | 303.15 K | 313.15 K
x1 = 0.014 | 971 | 643 | 420 | 192
x1 = 0.029 | 1032 | 613 | 390 | 189
x1 = 0.046 | 1123 | 683 | 439 | 217
x1 = 0.085 | 1228 | 775 | 506 | 248
x1 = 0.104 | 1251 | 794 | 526 | 258
x1 = 0.214 | 1185 | 795 | 538 | 267
x1 = 0.286 | 1096 | 746 | 509 | 257
x1 = 0.387 | 1019 | 704 | 483 | 248
x1 = 0.475 | 928 | 646 | 448 | 233
x1 = 0.548 | 856 | 600 | 422 | 225
x1 = 0.73 | 847 | 614 | 459 | 242
x1 = 0.834 | 925 | 653 | 459 | 244

CCCC[P+](CC)(CC)CC.N#Cc1ccc[n-]1 + OCCN(CCO)CCO
293.15 K, 100 kPa
Conditions | viscosity [mPa·s]
x1 = 0.018 | 956
x1 = 0.089 | 975
x1 = 0.104 | 937
x1 = 0.223 | 809
x1 = 0.413 | 679

CCCCOC(=O)c1ccccc1C(=O)OCCCC + Oc1cccc(O)c1
Conditions | viscosity [mPa·s]
293.15 K, 101 kPa, x2 = 0.35 | 69.1

[2H]O[2H] + [Br-].[K+]
viscosity [mPa·s], 101 kPa
Conditions | x2 = 0.012 | x2 = 0.0375 | x2 = 0.056 | x2 = 0.067 | x2 = 0.073 | x2 = 0.081
298.15 K | 1.086 | 1.046 | 1.024 | 1.018 | 1.03 | 1.047
308.15 K | 0.854 | 0.856 | 0.853 | 0.85 | 0.868 | 0.884
318.15 K | 0.715 | 0.725 | 0.732 | 0.739 | 0.754 | 0.767
